Experimental data from patent US20220387414A1, “TREATING LIVER DISORDERS” (Terns Pharmaceuticals Inc., priority 2019, published 2022).
Several values for one entry are separate records, joined by “and”; a condition that tells them apart may be missing. Equal entries are not always repeated.

Tests used:
[1] = In vitro metabolic stability in cryopreserved hepatocytes (mouse); type: in vitro ADME; settings: 0.5×10^6 cells/mL, 37° C.
Excerpt: (§1) 283, no. 1, pp. 46-58 (1997).

[2] = In vitro metabolic stability in cryopreserved hepatocytes (rat); type: in vitro ADME; settings: Sprague-Dawley Rat hepatocytes, 0.5×10^6 cells/mL, 37° C.
Excerpt: as §1

[3] = In vitro metabolic stability in cryopreserved hepatocytes (dog); type: in vitro ADME; settings: Beagle Dog hepatocytes, 0.5×10^6 cells/mL, 37° C.
Excerpt: as §1

[4] = In vitro metabolic stability in cryopreserved hepatocytes (monkey); type: in vitro ADME; settings: Cynomolgus Monkey hepatocytes, 0.5×10^6 cells/mL, 37° C.
Excerpt: as §1

[5] = In vitro metabolic stability in cryopreserved hepatocytes (human); type: in vitro ADME; settings: 0.5×10^6 cells/mL, 37° C.
Excerpt: as §1

[6] = Pharmacokinetics assay, IV and oral, monkey; type: in vivo, cynomolgus monkeys; settings: plasma; Cynomolgus Monkey, oral 5 mg/kg, IV 0.3 mg/kg
Excerpt: Results are shown in FIG. 1A (IV administration) and FIG. 1B (oral administration), and in Table 2. […] Smaller Vdss in monkeys is correlated with higher plasma protein binding.

[7] = Tissue distribution of radiolabeled (14C) Compound I after oral dose; type: in vivo; settings: Long-Evans rats, oral 5 mg/kg (100 μCi/kg), up to 168 hours
[8] = PK profile after oral dosing in monkeys; type: in vivo; settings: cynomolgus monkeys, oral 1 mg/kg for 7 consecutive days
Method: (§2) The pharmacodynamics were measured as a function of 7-alpha-hydroxy-4-cholesten-3-one (7α-C4) reduction (FIG. 4), as quantified by LC-MS/MS. Pharmacokinetics data is presented in Table 3, and were determined by non-compartmental analysis.

[9] = test system: 7-alpha-hydroxy-4-cholesten-3-one (7α-C4); assay: PD profile (7α-C4 reduction) after oral dosing in monkeys; type: in vivo; settings: cynomolgus monkeys, oral 1 mg/kg for 7 consecutive days
Method: as §2

[10] = test system: FXR-regulated gene expression in liver and ileum; assay: RT-qPCR of FXR-regulated gene expression in liver and ileum after single oral dose; type: in vivo; settings: mice, single oral dose 10 mg/kg, 6 hours after dose
Excerpt: For RT-qPCR, gene-specific primers were used to quantitate FXR-regulated gene expression in liver and ileum using the 2-ddCT method. Results are shown in FIG. 6 (data presented as mean±SEM; **** indicates p<0.0001 and * indicates p<0.05 versus vehicle, with statistics determined by one-way ANOVA followed by Tukey).

[11] = Clinical 7-day study, serum exposure of Compound I; type: in vivo, human; settings: healthy subjects, each 24-hour dosing period, all dosed groups
Excerpt: (§3) Second Study. […] 10-14, 2019.
(§4) Serum levels of Compound I in the subjects were periodically measured.

[12] = test system: 7-alpha-hydroxy-4-cholesten-3-one (7α-C4); assay: Clinical 7-day study, serum 7α-C4 suppression; type: in vivo, human; settings: healthy subjects; for maximum suppression of serum 7α-C4 levels (reduction): Day 7, six hours after dosing
Method: as §3
Serum levels of 7-alpha-hydroxy-4-cholesten-3-one (7α-C4) in the subjects were periodically measured. FIGS. 16A and 16B show changes of mean serum levels of 7α-C4 from the pre-dose baseline in different dosing groups on Day 1 and Day 7, respectively. […] On Day 7, maximum suppression of serum 7α-C4 levels was observed six hours after dosing corresponding to a reduction of 74%, 82%, and 91% in the 25, 75, and 150 mg dosing groups, respectively.

FGF-19 = assay: Clinical 7-day study, serum FGF-19; type: in vivo, human; settings: healthy subjects, four hours after dosing on Day 7; dosing groups not assigned in the text
Excerpt: as §4
Serum levels of FGF-19 in the subjects were periodically measured. FIGS. 17A and 17B show changes of mean serum levels of FGF-19 from the pre-dose baseline in different dosing groups on Day 1 and Day 7, respectively.

[13] = Clinical 7-day study, serum LDL; type: in vivo, human; settings: healthy subjects, 25, 75, or 150 mg QD for 7 days
Excerpt: as §4
Serum levels of low-density lipoprotein (LDL) in the subjects were periodically measured.

[14] = Clinical 7-day study, safety and pruritus; type: in vivo, human; settings: healthy volunteers
Method: as §3
Safety was assessed during dosing and for 10 (±1) days after dosing.

[15] = test system: NASH induced by a high fat diet in combination with CCl4; assay: Mouse model of NASH (high fat diet in combination with CCl4); type: in vivo, C57/BL6J mice; settings: 28 days
Method: Hematoxylin & Eosin (H&E) and Sirius Red histological staining of liver tissue was used to quantitate NAFLD activity score (NAS), steatosis, ballooning, inflammation and fibrosis.
NAS is calculated based upon liver steatosis, inflammation, and ballooning and was determined by analysis of liver tissue histology using H&E stain. Specifically, inflammation score was calculated based upon H&E staining: Score 0, none; 1, <2 foci per 200X field; 2, 2-4 foci per 200X field; 3, >4 foci per 200X field. […] Hepatocellular ballooning is a form of liver cell injury associated with cell swelling and is also measured by H&E stained liver sections. The ballooning score is calculated as follows: 0-no hepatocyte ballooning; 1-few ballooning hepatocytes; 2-many hepatocytes with prominent ballooning.
Liver fibrosis was quantified by histological analysis of the percentage of Sirius Red-positive liver sections.

[16] = test system: FXR-regulated, inflammatory and fibrosis gene expression in the liver; assay: Liver gene expression in NASH mouse model (RT-qPCR, RNA-seq); type: in vivo, C57/BL6J mice; settings: 10, 30, or 100 mg/kg daily oral, 28 days
[17] = test system: differentially expressed genes and pathways in liver; assay: RNAseq of liver after single oral dose; settings: mice liver, 6 hours; for number of differentially expressed genes modulated vs vehicle: fold change≥1.5, q-value<0.05; for number of global pathways enriched: p<0.05
Method: For RNAseq analysis, mRNA was extracted from total liver and sequenced using standard Illumina library preparation and sequencing protocols. Differentially expressed genes (DEG) were determined using RSEM and edgeR software packages and analyzed using Advaita Bio's iPathwayGuide software.

[18] = longer term studies; cited from earlier work
[19] = 10, 30, and 100 mg/kg daily oral
[20] = 10, 30, or 100 mg/kg daily oral

Q: With Cn1cc(C(=O)O)c2ccc(N3CCC(OCc4c(-c5c(Cl)cccc5Cl)noc4C4CC4)CC3)cc21 [Compound I, 6-{4-[5-cyclopropyl-3-(2,6-dichloro-phenyl)-isoxazol-4-ylmethoxy]-piperidin-1-yl}-1-methyl-1H-indole-3-carboxylic acid] as the compound, how does the half-life at 1 µM [1] read?
A: 0.727 ± 0.0472 h

Q: What about the half-life at 1 µM [2] of the same compound?
A: 2.18 ± 0.0685 h

Q: And the half-life at 1 µM [3]?
A: 2.1 ± 0.258 h

Q: What about the half-life at 1 µM [4] of the same compound?
A: 1.06 ± 0.013 h

Q: What about the half-life at 1 µM [5] of the same compound?
A: 1.4 ± 0.108 h

Q: And the bioavailability [6]?
A: 18%

Q: What about the “tissues with the most radioactive material” value [7] of the same compound?
A: Liver, small intestine, and cecum

Q: And the “plasma exposure on day 1 and day 7” value [8]?
A: comparable

Q: What about the “suppression of the pharmacodynamics biomarker 7α-C4” value [9] of the same compound?
A: sustained suppression

Q: And the “induction of FXR-specific genes (liver SHP1, liver OSTb, ileum SHP1, ileum FGF15)” value [10]?
A: preferentially induces FXR-specific genes in the liver

Q: What about the “mean serum levels of Compound I versus its EC50” value [11] of the same compound?
A: generally did not exceed the EC50

Q: And the “maximum suppression of serum 7α-C4 levels (reduction)” value (shortened to “maximum suppression … (reduction)”) ([12]; 25 mg QD)?
A: 74%

Q: And the “maximum suppression … (reduction)” value ([12]; 75 mg QD)?
A: 82%

Q: What about the “maximum suppression … (reduction)” value ([12]; 150 mg QD) of the same compound?
A: 91%

Q: What about the “suppression of serum 7α-C4 levels after a single dose” value ([12]; Day 1, all dosed groups (25, 75, 150 mg)) of the same compound?
A: partial suppression

Q: And the “maximum increases from baseline in serum FGF 19 levels” value (FGF-19)?
A: 718% and 486% and 454%

Q: What about the “serum LDL changes above baseline” value [13] of the same compound?
A: minimal

Q: What about the reports of pruritus ([14]; all doses (25, 75, 150 mg QD for 7 days)) of the same compound?
A: no reports of pruritus

Q: What about the safety and tolerability ([14]; all doses, during dosing and for 10 (±1) days after) of the same compound?
A: safe and well tolerated

Q: What about the “ballooning score compared to untreated NASH mice” value [15, 19] of the same compound?
A: significantly reduced

Q: And the “inflammation score compared to untreated NASH mice” value [15, 19]?
A: significantly reduced

Q: And the “steatosis score compared to untreated NASH mice” value [15, 19]?
A: significantly reduced

Q: And the “NAFLD Activity Score (NAS) compared to untreated NASH mice” value [15, 20]?
A: significantly lower

Q: And the “liver fibrosis (Sirius Red-positive area) compared to untreated NASH control” value [15, 20]?
A: statistically significant reduced fibrosis

Q: And the “collagen, type 1, alpha 1 expression in the liver compared to control NASH mice” value [16]?
A: decreased

Q: And the “number of differentially expressed genes modulated vs vehicle” value ([17]; single oral 10 mg/kg)?
A: 500 genes

Q: What about the “number of global pathways enriched” value ([17]; single oral 10 mg/kg) of the same compound?
A: 32 pathways

Q: What does the source list for CC[C@H]1[C@@H](O)[C@@H]2[C@H](CC[C@]3(C)[C@@H]([C@H](C)CCC(=O)O)CC[C@@H]23)[C@@]2(C)CC[C@@H](O)C[C@@H]12 [OCA, obeticholic acid, reference compound]?
A: pruritus [18]: known to result in pruritus; number of differentially expressed genes modulated vs vehicle ([17]; single oral 30 mg/kg): 44 genes; number of global pathways enriched ([17]; single oral 30 mg/kg): 6 pathways

Q: With O=C(O)c1ccnc(N2CC(O)(c3ccc(OCc4c(-c5c(Cl)cccc5Cl)noc4C4CC4)cc3Cl)C2)c1 [cilofexor] as the compound, how does the pruritus [18] read?
A: known to result in pruritus

Q: For O=C(O)c1cc(F)c2nc(N3[C@@H]4CC[C@H]3C[C@@H](OCc3c(-c5ccccc5OC(F)(F)F)noc3C3CC3)C4)sc2c1 [tropifexor], which pruritus [18] is on record?
A: known to result in pruritus
